Key:
Test in all cases: relative viability (nuclei count vs DMSO), 5 days (fraction); higher = more cells survive
COR-L23 = test system: COR-L23
In short: (§1)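 Lung cancer cell lines in 1536-well plates got either a single drug or a fixed anchor-drug dose together with five library-drug doses (not always all listed) in √10 steps, by pin tool, on the day after seeding. Nuclei were counted after 5 days, and relative viability is the treated-to-vehicle ratio of nuclei counts. Values are medians of duplicate plates.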

NCI-H358 = test system: NCI-H358
In short: as §1

BEN = test system: BEN
In short: as §1

NCI-H838 = test system: NCI-H838
In short: as §1

NCI-H2342 = test system: NCI-H2342
In short: as §1

LOU-NH91 = test system: LOU-NH91
In short: as §1

SK-LU-1 = test system: SK-LU-1
In short: as §1

HCC-366 = test system: HCC-366
In short: as §1

NCI-H1793 = test system: NCI-H1793
In short: as §1

NCI-H441 = test system: NCI-H441
In short: as §1

NCI-H2023 = test system: NCI-H2023
In short: as §1

NCI-H2085 = test system: NCI-H2085
In short: as §1

CAL-12T = test system: CAL-12T
In short: as §1

NCI-H1975 = test system: NCI-H1975
In short: as §1

NCI-H1651 = test system: NCI-H1651
In short: as §1

NCI-H1355 = test system: NCI-H1355
In short: as §1

NCI-H1734 = test system: NCI-H1734
In short: as §1

NCI-H460 = test system: NCI-H460
In short: as §1

NCI-H1650 = test system: NCI-H1650
In short: as §1

LU99A = test system: LU99A
In short: as §1

NCI-H1437 = test system: NCI-H1437
In short: as §1

Compound `Cc1sc2c(c1C)C(c1ccc(Cl)cc1)=N[C@@H](CC(=O)OC(C)(C)C)c1nnc(C)n1-2` [JQ1] + O=C(CCCCCCC(=O)Nc1ccccc1)NO [Vorinostat] (partner 1 µM) has a relative viability (COR-L23; first compound 0.04 µM) of 0.516, a relative viability (COR-L23; first compound 0.1265 µM) of 0.327 and a relative viability (COR-L23; first compound 0.4 µM) of 0.401. For the same compound, the relative viability (COR-L23; first compound 1.265 µM) was 0.269, the relative viability (COR-L23; first compound 4 µM) was 0.207 and the relative viability (NCI-H358; first compound 0.04 µM) was 0.662. The relative viability (NCI-H358; first compound 0.1265 µM) was 0.628, the relative viability (NCI-H358; first compound 0.4 µM) was 0.533 and the relative viability (NCI-H358; first compound 1.265 µM) was 0.161. For the same compound, the relative viability (NCI-H358; first compound 4 µM) was 0.134, the relative viability (BEN; first compound 0.04 µM) was 0.503 and the relative viability (BEN; first compound 0.1265 µM) was 0.545. It also gave a relative viability (BEN; first compound 0.4 µM) of 0.494, a relative viability (BEN; first compound 1.265 µM) of 0.456 and a relative viability (BEN; first compound 4 µM) of 0.351. The relative viability (NCI-H838; first compound 0.04 µM) was 0.703, the relative viability (NCI-H838; first compound 0.1265 µM) was 0.322 and the relative viability (NCI-H838; first compound 0.4 µM) was 0.488. It also gave a relative viability (NCI-H838; first compound 1.265 µM) of 0.277, a relative viability (NCI-H838; first compound 4 µM) of 0.319 and a relative viability (NCI-H2342; first compound 0.04 µM) of 0.722. The relative viability (NCI-H2342; first compound 0.1265 µM) was 0.592, the relative viability (NCI-H2342; first compound 0.4 µM) was 0.87 and the relative viability (NCI-H2342; first compound 1.265 µM) was 0.73. For the same compound, the relative viability (NCI-H2342; first compound 4 µM) was 0.714, the relative viability (LOU-NH91; first compound 0.04 µM) was 0.912 and the relative viability (LOU-NH91; first compound 0.1265 µM) was 0.718. The relative viability (LOU-NH91; first compound 0.4 µM) was 0.442, the relative viability (LOU-NH91; first compound 1.265 µM) was 0.388 and the relative viability (LOU-NH91; first compound 4 µM) was 0.402. The relative viability (SK-LU-1; first compound 0.04 µM) was 0.797, the relative viability (SK-LU-1; first compound 0.1265 µM) was 0.688 and the relative viability (SK-LU-1; first compound 0.4 µM) was 0.676. It also gave a relative viability (SK-LU-1; first compound 1.265 µM) of 0.477, a relative viability (SK-LU-1; first compound 4 µM) of 0.289 and a relative viability (HCC-366; first compound 0.04 µM) of 0.409. The relative viability (HCC-366; first compound 0.4 µM) was 0.138, the relative viability (HCC-366; first compound 1.265 µM) was 0.0461 and the relative viability (HCC-366; first compound 4 µM) was 0.042. It also gave a relative viability (NCI-H1793; first compound 0.04 µM) of 0.722, a relative viability (NCI-H1793; first compound 0.1265 µM) of 0.853 and a relative viability (NCI-H1793; first compound 0.4 µM) of 0.664. The relative viability (NCI-H1793; first compound 1.265 µM) was 0.548, the relative viability (NCI-H1793; first compound 4 µM) was 0.508 and the relative viability (NCI-H441; first compound 0.04 µM) was 0.64. For the same compound, the relative viability (NCI-H441; first compound 0.1265 µM) was 0.943, the relative viability (NCI-H441; first compound 0.4 µM) was 0.886 and the relative viability (NCI-H441; first compound 1.265 µM) was 0.303. The relative viability (NCI-H441; first compound 4 µM) was 0.199, the relative viability (NCI-H2023; first compound 0.04 µM) was 0.6 and the relative viability (NCI-H2023; first compound 0.1265 µM) was 0.372. The relative viability (NCI-H2023; first compound 0.4 µM) was 0.44, the relative viability (NCI-H2023; first compound 1.265 µM) was 0.156 and the relative viability (NCI-H2023; first compound 4 µM) was 0.106. The relative viability (NCI-H2085; first compound 0.04 µM) was 0.769, the relative viability (NCI-H2085; first compound 0.1265 µM) was 0.601 and the relative viability (NCI-H2085; first compound 0.4 µM) was 0.639. It also gave a relative viability (NCI-H2085; first compound 1.265 µM) of 0.474, a relative viability (NCI-H2085; first compound 4 µM) of 0.398 and a relative viability (CAL-12T; first compound 0.04 µM) of 0.853. The relative viability (CAL-12T; first compound 0.1265 µM) was 0.838, the relative viability (CAL-12T; first compound 0.4 µM) was 0.685 and the relative viability (CAL-12T; first compound 1.265 µM) was 0.238. The relative viability (CAL-12T; first compound 4 µM) was 0.217, the relative viability (NCI-H1975; first compound 0.04 µM) was 0.729 and the relative viability (NCI-H1975; first compound 0.1265 µM) was 0.6. It also gave a relative viability (NCI-H1975; first compound 0.4 µM) of 0.64, a relative viability (NCI-H1975; first compound 1.265 µM) of 0.325 and a relative viability (NCI-H1975; first compound 4 µM) of 0.263. For the same compound, the relative viability (NCI-H1651; first compound 0.04 µM) was 0.615, the relative viability (NCI-H1651; first compound 0.1265 µM) was 0.472 and the relative viability (NCI-H1651; first compound 0.4 µM) was 0.445. For the same compound, the relative viability (NCI-H1651; first compound 1.265 µM) was 0.416, the relative viability (NCI-H1651; first compound 4 µM) was 0.307 and the relative viability (NCI-H1355; first compound 0.04 µM) was 0.663. The relative viability (NCI-H1355; first compound 0.1265 µM) was 0.712, the relative viability (NCI-H1355; first compound 0.4 µM) was 0.541 and the relative viability (NCI-H1355; first compound 1.265 µM) was 0.401. For the same compound, the relative viability (NCI-H1355; first compound 4 µM) was 0.281, the relative viability (NCI-H1734; first compound 0.04 µM) was 0.802 and the relative viability (NCI-H1734; first compound 0.1265 µM) was 0.665. It also gave a relative viability (NCI-H1734; first compound 0.4 µM) of 0.712, a relative viability (NCI-H1734; first compound 1.265 µM) of 0.334 and a relative viability (NCI-H1734; first compound 4 µM) of 0.358. For the same compound, the relative viability (NCI-H460; first compound 0.04 µM) was 0.672, the relative viability (NCI-H460; first compound 0.1265 µM) was 0.621 and the relative viability (NCI-H460; first compound 0.4 µM) was 0.18. It also gave a relative viability (NCI-H460; first compound 1.265 µM) of 0.0632, a relative viability (NCI-H460; first compound 4 µM) of 0.0462 and a relative viability (NCI-H1650; first compound 0.04 µM) of 0.6. For the same compound, the relative viability (NCI-H1650; first compound 0.1265 µM) was 0.438, the relative viability (NCI-H1650; first compound 0.4 µM) was 0.475 and the relative viability (NCI-H1650; first compound 1.265 µM) was 0.292. The relative viability (NCI-H1650; first compound 4 µM) was 0.177, the relative viability (LU99A; first compound 0.04 µM) was 0.61 and the relative viability (LU99A; first compound 0.4 µM) was 0.363. It also gave a relative viability (LU99A; first compound 1.265 µM) of 0.278, a relative viability (LU99A; first compound 4 µM) of 0.188 and a relative viability (NCI-H1437; first compound 0.04 µM) of 0.816. The relative viability (NCI-H1437; first compound 0.1265 µM) was 0.736, the relative viability (NCI-H1437; first compound 0.4 µM) was 0.686 and the relative viability (NCI-H1437; first compound 1.265 µM) was 0.395. For the same compound, the relative viability (NCI-H1437; first compound 4 µM) was 0.34.

— the supplement of paper PMC10307832
